Results taken from ChEMBL document CHEMBL5230091, “Histone deacetylase inhibitor based prodrugs” (Eur J Med Chem, 2020).
≈ marks a conversion by molar mass, not a printed value. Values belong to the compound of their own block, whether it stands above or below them.

Experiments:
[1] = system: A549; experiment: Antiproliferative activity against human A549 cells assessed as cell growth inhibition measured after 72 hrs by SRB assay; assay type: functional, cell-based; conditions: A549, 72 h
[2] = system: HCT-116; experiment: Antiproliferative activity against human HCT-116 cells assessed as cell growth inhibition measured after 72 hrs by SRB assay; assay type: functional, cell-based; conditions: HCT-116, 72 h
[3] = Aqueous solubility of compound by HPLC method; assay type: physicochemical; conditions: water (aqueous)
[4] = system: SK-OV-3; experiment: Antitumor activity against human SK-OV-3 cells xenografted in athymic nude mouse assessed as tumor volume inhibition at 60 mg/kg per day, po; assay type: functional
[5] = system: HCT-116; experiment: Antitumor activity against human HCT-116 cells xenografted in athymic nude mouse assessed as tumor volume inhibition at 60 mg/kg per day, po; assay type: functional
[6] = system: NCI-H1975; experiment: Antitumor activity against human NCI-H1975 cells xenografted in athymic nude mouse assessed as tumor volume inhibition at 60 mg/kg per day, po; assay type: functional
[7] = system: MV4-11; experiment: Antitumor activity against human MV4-11 cells xenografted in athymic nude mouse assessed as tumor volume inhibition at 60 mg/kg per day, po; assay type: functional
[8] = system: MDA-MB-436; experiment: Antitumor activity against human MDA-MB-436 cells xenografted in athymic nude mouse assessed as tumor volume inhibition at 60 mg/kg per day, po; assay type: functional
[9] = Cytotoxicity against human Astrocyte cells assessed as cell growth inhibition; assay type: toxicity, cell-based
[10] = system: SF-188; experiment: Antiproliferative activity against human SF-188 cells assessed as cell growth inhibition; assay type: functional, cell-based
[11] = system: U-251; experiment: Antiproliferative activity against human U-251MG cells assessed as cell growth inhibition; assay type: functional, cell-based

SMILES: CCc1c2c(nc3ccc(O)cc13)-c1cc3c(c(=O)n1C2)COC(=O)[C@]3(O)CC [7-ETHYL-10-HYDROXYCAMPTOTHECIN]
IC50 [1]: 45.4 nM
IC50 [2]: 55.1 nM

SMILES: CC(=O)SCCCCC[C@H](NC(=O)[C@H]1CCC(=O)N1)C(=O)Nc1ccccc1
inhibition in vivo at 60 mg/kg [4]: 59%
inhibition in vivo at 60 mg/kg [5]: 77%
inhibition in vivo at 60 mg/kg [6]: 65%
inhibition in vivo at 60 mg/kg [7]: 70%
inhibition in vivo at 60 mg/kg [8]: 35%

SMILES: CCc1c2c(nc3ccc(O)cc13)-c1cc3c(c(=O)n1C2)COC(=O)[C@@]3(CC)OC(=O)CNC(=O)ONC(=O)CCCCCCC(=O)Nc1ccccc1
IC50 [1]: 87.3 nM
IC50 [2]: 113 nM

SMILES: CCCC(=O)OCOC(=O)CCCc1ccccc1
IC50 [9]: 291000 nM
IC50 [10]: 76000 nM
IC50 [11]: 154000 nM

Now from value to compound:

solubility [3]: 100 mg/mL (≈ 131 mM)
SMILES: CN(CCOC(=O)ONC(=O)/C=C/c1cccc(S(=O)(=O)Nc2ccccc2)c1)C(=O)OCc1ccc(O[C@@H]2O[C@H](C(=O)O)[C@@H](O)[C@H](O)[C@H]2O)c(N)c1

solubility [3]: 55 mg/mL (≈ 77.8 mM)
SMILES: CN(CCOC(=O)ONC(=O)CCCCCCC(=O)Nc1ccccc1)C(=O)OCc1ccc(O[C@@H]2O[C@H](C(=O)O)[C@@H](O)[C@H](O)[C@H]2O)c(N)c1

solubility [3]: 40 mg/mL (≈ 54.3 mM)
SMILES: CN(CCOC(=O)ONC(=O)CCCCCCC(=O)Nc1ccccc1)C(=O)OCc1ccc(O[C@@H]2O[C@H](C(=O)O)[C@@H](O)[C@H](O)[C@H]2O)c([N+](=O)[O-])c1

solubility [3]: 80 mg/mL (≈ 101 mM)
SMILES: CN(CCOC(=O)ONC(=O)/C=C/c1cccc(S(=O)(=O)Nc2ccccc2)c1)C(=O)OCc1ccc(O[C@@H]2O[C@H](C(=O)O)[C@@H](O)[C@H](O)[C@H]2O)c([N+](=O)[O-])c1
